This is an account of results in patent US6407248B1, “α-unsaturated amines, their production and use” (Takeda Chemical Industries, Ltd., priority 1987, dated 2002).

The subject of one data set is Brown Planthoppers (Nilaparvata lugens). Nature of the data set: Effect against brown planthoppers (foliar spray on rice seedlings). The format is in vivo. Conditions: Nilaparvata lugens, foliar, 168 h, read-out: % Mortality after 7 days. As to the method:
Effect Against Brown Planthoppers (Nilaparvata lugens)
An emulsifiable concentrate of the compound of the invention, prepared in the same manner as Example 112 below, was diluted with water to a concentration of 500 ppm and sprayed over the stems and leaves of rice seedlings in the 2-leaf stage at the rate of 10 ml per paper pot. Water was put in test tubes and the treated rice seedlings were placed therein. Then, 10 brown planthopper larvae were released in each tube, which was then capped with an aluminum cap. The test tubes were maintained in an incubator at 25° C. and the dead insects were counted 7 days after release. The % mortality was calculated using the following formula. [formula]
On to `CNC(=C[N+](=O)[O-])NCc1cccnc1` [Compound 3, 1-Methylamino-1-(3-pyridylmethyl)amino-2-nitroethylene], for which the mortality at 500 µg/mL stood at 100%.
Same read-out and setting: as for `CCNC(=C[N+](=O)[O-])NCc1cccnc1` [Compound 4, 1-Ethylamino-1-(3-pyridylmethyl)amino-2-nitroethylene], the figure is 100%; as for `C[Si](C)(C)CNC(=C[N+](=O)[O-])NCc1cccnc1` [Compound 17, 1-(3-Pyridylmethyl)amino-1-(trimethylsilylmethyl)amino-2-nitroethylene], 100%.
On the same count and under the same terms, next, `NNC(=C[N+](=O)[O-])NCc1cccnc1` [Compound 18, 1-Hydrazino-1-(3-pyridylmethyl)amino-2-nitroethylene]: 100%; `CN(C)C(=C[N+](=O)[O-])NCc1cccnc1` [Compound 19, 1-Dimethylamino-1-(3-pyridylmethyl)amino-2-nitroethylene]: 100%; `CNC(=C[N+](=O)[O-])NCc1ccc(Cl)nc1` [Compound 28, 1-(6-Chloro-3-pyridylmethyl)amino-1-methylamino-2-nitroethylene]: 100%.
In the case of `CN(C)C(=C[N+](=O)[O-])NCc1ccc(Cl)nc1` [Compound 46, 1-(6-Chloro-3-pyridylmethyl)amino-1-dimethylamino-2-nitroethylene], the mortality at 500 µg/mL turned out to be 100%.
On to `CNC(=C[N+](=O)[O-])NCc1ccc(Cl)nc1Cl` [Compound 47, 1-(2,6-Dichloro-3-pyridylmethyl)amino-1-methylamino-2-nitroethylene], for which the mortality at 500 µg/mL is 100%.
As to `CC(C)N(Cc1ccc(Cl)nc1)C(N)=C[N+](=O)[O-]` [Compound 49, 1-Amino-1-(N-(6-chloro-3-pyridylmethyl)-N-i-propyl]amino-2-nitroethylene], the mortality at 500 µg/mL came to 100%.
On the same count and under the same terms, next, `CCN(C)C(=C[N+](=O)[O-])NCc1ccc(Cl)nc1` [Compound 50, 1-(6-Chloro-3-pyridylmethyl)amino-1-(N-ethyl-N-methyl)amino-2-nitroethylene]: 100%; `NNC(=C[N+](=O)[O-])NCc1ccc(Cl)nc1` [Compound 51, 1-(6-Chloro-3-pyridylmethyl)amino-1-hydrazino-2-nitroethylene]: 100%; `CN(C)NC(=C[N+](=O)[O-])NCc1ccc(Cl)nc1` [Compound 52, 1-(6-Chloro-3-pyridylmethyl)amino-1-(2,2-dimethyl-1-hydrazino)-2-nitroethylene]: 100%.
On to `CN(C)C(=C[N+](=O)[O-])N(C)Cc1ccc(Cl)nc1` [Compound 58, 1-[N-(6-Chloro-3-pyridylmethyl)-N-methyl]amino-1-dimethylamino-2-nitroethylene], for which the mortality at 500 µg/mL is 100%.
Turning to `CCN(Cc1ccc(Cl)nc1)C(N)=C[N+](=O)[O-]` [Compound 59, 1-Amino-1-[N-(6-chloro-3-pyridylmethyl)-N-ethyl]-amino-2-nitroethylene], the mortality at 500 µg/mL was determined as 100%.

Staying with this data set, now noted: Nilaparvata lugens, foliar, 168 h; emulsifiable concentrate diluted with water to 500 ppm, sprayed on rice seedlings (2-leaf stage), 10 ml per paper pot; 10 larvae per tube; 25° C.; dead insects counted 7 days after release; read-out: % Mortality after 7 days.
In the case of `C=CCNC(=C[N+](=O)[O-])NCc1cccnc1` [Compound 7, 1-Allylamino-1-(3-pyridylmethyl)amino-2-nitroethylene], the mortality at 500 µg/mL is 100%.
The same measure, in the same setting: as for `CN(C)CCNC(=C[N+](=O)[O-])NCc1cccnc1` [Compound 12, 1-(2-Dimethylaminoethyl)amino-1-(3-pyridylmethyl)amino-2-nitroethylene], the figure is 100%; as for `O=[N+]([O-])C=C(NCc1cccnc1)N1CCCC1` [Compound 20, 1-(3-Pyridylmethyl)amino-1-pyrrolidino-2-nitroethylene], 100%; as for `CNC(=C[N+](=O)[O-])N(C)CCc1cccnc1` [Compound 55, 1-Methylamino-1-[N-methyl-N-[2-(3-pyridyl)ethyl]-amino]-2-nitroethylene], 100%.
On the same count and under the same terms, as for `CN(Cc1cccnc1)C(=C[N+](=O)[O-])N(C)Cc1cccnc1` [Compound 57, 1,1-bis(N-methyl-N-3-pyridylmethyl)amino-2-nitroethylene], the figure is 100%; as for `CNC(=C[N+](=O)[O-])N(C)Cc1ccc(OC)nc1` [Compound 61, 1-[N-(6-Methoxy-3-pyridylmethyl)-N-methyl]amino-1-methylamino-2-nitroethylene], 100%.
Take `CNC(=C[N+](=O)[O-])N(C)Cc1ccncc1` [Compound 62, 1-Methylamino-1-[N-methyl-N-(4-pyridylmethyl)]-amino-2-nitroethylene]: the mortality at 500 µg/mL was 100%.
Take `CNC(=C[N+](=O)[O-])N(Cc1cccnc1)OC` [Compound 64, 1-[N-methoxy-N-(3-pyridylmethyl)]amino-1-methyl-amino-2-nitroethylene]: the mortality at 500 µg/mL came to 100%.
With `CN(C=O)C(=C[N+](=O)[O-])N(C)Cc1cccnc1` [Compound 65, 1-(N-Formyl-N-methyl)amino-1-[N-methyl-N-(3-pyridyl-methyl)]amino-2-nitroethylene], the mortality at 500 µg/mL was determined as 100%.
Take `COCCNC(=C[N+](=O)[O-])N(C)Cc1cccnc1` [Compound 67, 1-(2-Methoxyethyl)amino-1-[N-methyl-N-(3-pyridylmethyl)]amino-2-nitroethylene]: the mortality at 500 µg/mL was 100%.

The data set is the same for the next values; noted with them: emulsifiable concentrate diluted with water to 500 ppm, sprayed on rice seedlings (2-leaf stage), 10 ml per paper pot; 10 larvae per tube; 25° C.; dead insects counted 7 days after release.
On to `COCCNC(=C[N+](=O)[O-])NCc1cccnc1` [Compound 14, 1-(2-Methoxyethyl)amino-1-(3-pyridylmetyl)amino-2-nitroethylene], for which the “% Mortality after 7 days” value is 100%.
Same read-out and setting: as for `CN(C)NC(=C[N+](=O)[O-])NCc1cccnc1` [Compound 24, 1-(2,2-Dimethyl-1-hydrazino)-1-(3-pyridylmethyl)amino-2-nitroethylene], the figure is 100%; as for `CN(Cc1cccnc1)C(N)=C[N+](=O)[O-]` [Compound 25, 1-Amino-1-(N-methyl-N-3-pyridylmethyl)amino-2-nitroethylene], 100%; as for `CNC(=C[N+](=O)[O-])N(C)Cc1cccnc1` [Compound 26, 1-Methylamino-1-(N-methyl-N-3-pyridylmethyl)amino-2-nitroethylene], 100%.
On the same count and under the same terms, as for `CNC(=C[N+](=O)[O-])N(C)Cc1ccc(Cl)nc1` [Compound 29, 1-[N-(6-Chloro-3-pyridylmethyl)-N-methyl]amino-1-methylamino-2-nitroethylene], the figure is 100%; as for `CCN(Cc1cccnc1)C(=C[N+](=O)[O-])NC` [Compound 31, 1-[N-Ethyl-N-(3-pyridylmethyl)]amino-1-methylamino-2-nitroethylene], 100%; as for `CNC(=C[N+](=O)[O-])N(Cc1cccnc1)CC(OC)OC` [Compound 32, 1-[N-(2-Dimethoxyethyl)-N-(3-pyridylmethyl)]amino-1-methylamino-2-nitroethylene], 100%.
The same measure, in the same setting: next, `CCNC(=C[N+](=O)[O-])N(C)Cc1cccnc1` [Compound 33, 1-Ethylamino-1-[N-methyl-N-(3-pyridylmethy)]amino-2-nitroethylene]: 100%; `CCCCNC(=C[N+](=O)[O-])N(C)Cc1cccnc1` [Compound 34, 1-n-Butylamino-1-[N-methyl-N-(3-pyridylmethyl)]amino-2-nitroethylene]: 100%.
As to `CNC(=C[N+](=O)[O-])N(CCOC)Cc1cccnc1` [Compound 35, 1-Methyl-amino-1-[N-(2-methoxyethyl)-N-(3-pyridylmethyl)]amino-2-nitroethylene], the “% Mortality after 7 days” value stood at 100%.
For `CC(C)NC(=C[N+](=O)[O-])N(C)Cc1cccnc1` [Compound 37, 1-iso-Propylamino-1-[N-methyl-N-(3-pyridylmethyl)]-amino-2-nitroethylene], the “% Mortality after 7 days” value is on record as 100%.
Take `CN(Cc1cccnc1)C(=C[N+](=O)[O-])NCc1ccccc1` [Compound 38, 1-Benzylamino-1-[N-methyl-N-(3-pyridylmethyl)l]amino-2-nitroethylene]: the “% Mortality after 7 days” value is on record as 100%.
Regarding `CNC(=C[N+](=O)[O-])N(C)C(C)c1cccnc1` (stereo not shown) [Compound 40, 1-Metylamino-1-[N-methyl-N-[1-(3-pyridyl)ethyl]]amino-2-nitroethylene], the “% Mortality after 7 days” value was 100%.
The same measure, in the same setting: as for `CNC(=C[N+](=O)[O-])N(Cc1cccnc1)N(C)C` [Compound 41, 1-[2,2-Dimethyl-1-(3-pyridylmethyl)]hydrazino-1-methylamino-2-nitroethylene], the figure is 100%; as for `CCCN(Cc1cccnc1)C(=C[N+](=O)[O-])NC` [Compound 42, 1-Methylamino-1-[N-(n-propyl)-N-(3-pyridylmethyl)]amino-2-nitroethylene], 100%; as for `CCCCN(C(=C[N+](=O)[O-])NC)c1cccnc1` [Compound 43], 100%.
The same measure, in the same setting: next, `CNC(=C[N+](=O)[O-])N(Cc1ccccc1)Cc1cccnc1` [Compound 44, 1-[N-Benzyl-N-(3-pyridylmethyl)]amino-1-methylamino-2-nitroethylene]: 100%; `CN(Cc1ccc(Cl)nc1)C(N)=C[N+](=O)[O-]` [Compound 45, 1-Amino-1-[N-(6-chloro-3-pyridylmethyl)-N-methyl]-amino-2-nitroethylene]: 100%; `CCN(Cc1ccc(Cl)nc1)C(=C[N+](=O)[O-])NC` [Compound 60, 1-[N-(6-Chloro-3-pyridylmethyl)-N-ethyl]amino-1-methylamino-2-nitroethylene]: 100%.

The mortality is the share of the test organisms that died.
